Columns and labels:
[1] = Dissolution of the powder in aqueous solution (equivalent of 4 g/l piroxicam, sample after 15 min, HPLC); type: physicochemical; conditions: equivalent of 4 g/l of piroxicam in aqueous solution at 37° C.
[2] = 2:1 (v/v) dioxane:water mixture; cited from earlier work

CN1C(C(=O)Nc2ccccn2)=C(O)c2ccccc2S1(=O)=O [piroxicam]
Dissolution of the piroxicam (g/l) [1]: less than 0.2 g/l
Dissolution of the piroxicam ([1]; listed as Piroxicam): <0.2 g/L
pKa value of the enol functional group [2]: ~2

— patent US9243076B2 (PIERRE FABRE MEDICAMENT, priority 2004, dated 2016)
